Source: the NIST ThermoML archive (doi:10.1016/j.jct.2013.06.018)

Test: excess molar enthalpy (molar enthalpy of mixing); xn = mol fraction of the nth substance listed
Conditions: 298.15 K, 101 kPa, Liquid, Calvet calorimetry

CCCCCCC [heptane] + CCCO
Conditions	excess molar enthalpy [kcal/mol]
x2 = 0.0699	0.102
x2 = 0.1182	0.125
x2 = 0.2088	0.148
x2 = 0.3839	0.158
x2 = 0.4743	0.152
x2 = 0.5332	0.142
x2 = 0.6744	0.115
x2 = 0.7196	0.103
x2 = 0.7698	0.0906
x2 = 0.7701	0.0884
x2 = 0.8193	0.0719
x2 = 0.8566	0.0605
x2 = 0.8909	0.0483
x2 = 0.8974	0.0464
x2 = 0.9343	0.0308
x2 = 0.9675	0.016
